Data as given in DBAASP.
Values after ≈ are worked out from the molar mass of the structure shown. Values joined by “and” are separate entries in the source; they are usually repeats but may differ in a detail not shown here. Equal values may be shown once. One block for each compound: values may come before it.

Experiments:
Assay in all cases: ≥ marks a high value that may be exact or a test limit, other limits are often not marked, values filed in µg/mL are converted to µM
[1] = tested on: Bacillus licheniformis X39
[2] = tested on: Candida albicans ATCC 10231
[3] = tested on: Enterococcus faecalis 981
[4] = tested on: Escherichia coli ATCC 25922
[5] = tested on: Klebsiella pneumoniae 08040724
[6] = tested on: Pseudomonas aeruginosa 11053
[7] = tested on: Pseudomonas aeruginosa CGMCC 1.50
[8] = tested on: Psychrobacter faecalis X29
[9] = tested on: Rhodococcus rhodochrous X15
Serratia rubidaea X01 = tested on: Serratia rubidaea X01
[10] = tested on: Staphylococcus aureus ATCC 25923
[11] = tested on: Staphylococcus carnosus KHS
Bacillus cereus = tested on: Bacillus cereus
[12] = tested on: Bacillus subtilis ATCC 6633
[13] = tested on: Candida albicans ATCC 36232
Candida albicans = tested on: Candida albicans
Escherichia coli AS1.349 = tested on: Escherichia coli AS1.349
[14] = tested on: Escherichia coli KCTC 2433
[15] = tested on: Klebsiella pneumoniae ATCC 10031
Lactococcus lactis = tested on: Lactococcus lactis
[16] = tested on: Micrococcus luteus ATCC 4698
[17] = tested on: Proteus mirabilis ATCC 25933
[18] = tested on: Pseudomonas aeruginosa ATCC 9027
Pseudomonas aeruginosa = tested on: Pseudomonas aeruginosa
[19] = tested on: Shigella dysenteriae ATCC 9752
[20] = tested on: Staphylococcus aureus AS1.72
[21] = tested on: Staphylococcus aureus KCTC 3881
[22] = tested on: Staphylococcus epidermidis ATCC 12228
[23] = tested on: Acholeplasma laidlawii A-EF22
[24] = tested on: Mycoplasma mycoides ssp. mycoides SC KH3J
Spiroplasma citri R8A2 = tested on: Spiroplasma citri R8A2
[25] = tested on: Spiroplasma floricola BNR 1
[26] = tested on: Spiroplasma melliferum BC3
[27] = tested on: Acinetobacter baumannii ATCC 19606
Acinetobacter baumannii = tested on: Acinetobacter baumannii
Escherichia coli D21 = tested on: Escherichia coli D21
Micrococcus luteus = tested on: Micrococcus luteus
[28] = tested on: Pseudomonas aeruginosa ATCC 27853
[29] = tested on: Staphylococcus aureus II ATCC 6538P
[30] = tested on: Staphylococcus epidermidis LT1324
Staphylococcus simulans = tested on: Staphylococcus simulans
[31] = tested on: Pseudomonas aeruginosa H1001
[32] = tested on: Bacillus subtilis KCCM 11495
[33] = tested on: Escherichia coli KCCM 11569

MIC [1]: 2.3 µM (≈ 6.02 µg/mL) | MIC [2]: 37.5 µM (≈ 98.2 µg/mL) | MIC [3]: 9 µM (≈ 23.6 µg/mL) | MIC [4]: 75 µM (≈ 196 µg/mL) | MIC [5]: ≥ 150 µM | MIC [6]: ≥ 75 µM | MIC [7]: ≥ 75 µM | MIC [8]: 9 µM (≈ 23.6 µg/mL) | MIC [9]: 0.6 µM (≈ 1.57 µg/mL) | MIC (Serratia rubidaea X01): 4.6 µM (≈ 12 µg/mL) | MIC [10]: 9 µM (≈ 23.6 µg/mL) | MIC [11]: 1.2 µM (≈ 3.14 µg/mL)
SMILES: CC[C@H](C)[C@H](NC(=O)[C@H](CCCCN)NC(=O)[C@@H]1CCCN1C(=O)[C@H](CC(C)C)NC(=O)[C@H](Cc1ccccc1)NC(=O)[C@H](CC(N)=O)NC(=O)[C@H](C)NC(=O)[C@H](C)NC(=O)[C@H](CC(C)C)NC(=O)CNC(=O)[C@H](C)NC(=O)[C@H](CC(C)C)NC(=O)[C@H](CCSC)NC(=O)[C@@H]1CCCN1C(=O)[C@H](CC(C)C)NC(=O)[C@@H](N)Cc1ccccc1)C(=O)N[C@H](C(=O)N[C@H]1CSSC[C@@H](C(=O)O)NC(=O)[C@H](CCCCN)NC(=O)[C@H](CCCCN)NC(=O)[C@H]([C@@H](C)O)NC(=O)[C@H]([C@@H](C)CC)NC(=O)[C@H](CCCCN)NC1=O)C(C)C [FLPMLAGLAANFLPKIVCKITKKC]

MIC (Bacillus cereus): ≥ 37.5 µM | MIC [12]: 15.1 µM (≈ 50 µg/mL) | MIC [13]: 30.1 µM (≈ 99.9 µg/mL) | MIC (Candida albicans): 50 µM (≈ 166 µg/mL) | MIC (Escherichia coli AS1.349): ≥ 100 µM | MIC [14]: 4.52 µM (≈ 15 µg/mL) | MIC [15]: 4.52 µM (≈ 15 µg/mL) | MIC (Lactococcus lactis): ≥ 37.5 µM | MIC [16]: 1.88 µM (≈ 6.25 µg/mL) | MIC [17]: 30.1 µM (≈ 99.9 µg/mL) | MIC [18]: > 30.1 µM | MIC (Pseudomonas aeruginosa): > 100 µM | MIC [19]: 18.1 µM (≈ 60 µg/mL) | MIC [20]: ≥ 37.5 µM | MIC [21]: 9.04 µM (≈ 30 µg/mL) | MIC [22]: 18.1 µM (≈ 60 µg/mL)
SMILES: CC(C)C[C@H](NC(=O)CN)C(=O)N[C@@H](Cc1ccccc1)C(=O)N[C@@H](CC(=O)O)C(=O)N[C@H](C(=O)N[C@H](C(=O)N[C@@H](CCCCN)C(=O)NCC(=O)N[C@H](C(=O)N[C@@H](CC(C)C)C(=O)N[C@@H](CCCCN)C(=O)NCC(=O)N[C@H](C(=O)NCC(=O)N[C@@H](CCCCN)C(=O)N[C@@H](CC(N)=O)C(=O)N[C@H](C(=O)N[C@@H](C)C(=O)NCC(=O)N[C@@H](CO)C(=O)N[C@@H](CC(C)C)C(=O)N[C@@H](CC(C)C)C(=O)N[C@@H](CCC(=O)O)C(=O)N[C@@H](CCC(N)=O)C(=O)N[C@@H](CC(C)C)C(=O)N[C@@H](CCCCN)C(=O)N[C@H]1CSSC[C@@H](C(=O)O)NC(=O)CNC(=O)CNC(=O)[C@H](CO)NC(=O)[C@H](CC(C)C)NC(=O)[C@H](CCCCN)NC1=O)C(C)C)C(C)C)C(C)C)C(C)C)C(C)C [GLFDVVKGVLKGVGKNVAGSLLEQLKCKLSGGC]

MIC [23]: 0.78 µM (≈ 1.55 µg/mL) | MIC [24]: 12.5 µM (≈ 24.9 µg/mL) | MIC (Spiroplasma citri R8A2): 6.25 µM (≈ 12.4 µg/mL) | MIC [25]: 6.25 µM (≈ 12.4 µg/mL) | MIC [26]: 6.25 µM (≈ 12.4 µg/mL)
SMILES: CC(C)C[C@H](NC(=O)[C@H](CCCCN)NC(=O)[C@H](CC(C)C)NC(=O)[C@H](CC(C)C)NC(=O)[C@H](CCCCN)NC(=O)[C@H](CC(C)C)NC(=O)[C@H](CC(C)C)NC(=O)[C@H](CCCCN)NC(=O)[C@H](CC(C)C)NC(=O)[C@H](CC(C)C)NC(=O)[C@H](CCCCN)NC(=O)[C@H](CC(C)C)NC(=O)[C@H](CC(C)C)NC(=O)[C@@H](N)CCCCN)C(=O)N[C@@H](Cc1c[nH]c2ccccc12)C(=O)N[C@@H](CCCCN)C(=O)O [KLLKLLKLLKLLKLWK]

MIC [27]: 1 µM (≈ 1.8 µg/mL) | MIC (Acinetobacter baumannii): 6.2 µM (≈ 11.2 µg/mL) | MIC [4]: 13 µM (≈ 23.5 µg/mL) | MIC (Escherichia coli D21): 13 µM (≈ 23.5 µg/mL) | MIC (Micrococcus luteus): 2 µM (≈ 3.61 µg/mL) | MIC [28]: 24.9 µM and 25 µM | MIC [29]: 3 µM (≈ 5.41 µg/mL) | MIC [30]: 4 µM (≈ 7.22 µg/mL) | MIC (Staphylococcus simulans): 2 µM (≈ 3.61 µg/mL)
SMILES: CC(C)C[C@H](NC(=O)[C@H](CC(C)C)NC(=O)[C@H](CCCCN)NC(=O)[C@H](CC(C)C)NC(=O)[C@H](CC(C)C)NC(=O)[C@H](CCCCN)NC(=O)[C@H](CCCCN)NC(=O)[C@H](CC(C)C)NC(=O)[C@H](CC(C)C)NC(=O)[C@H](CCCCN)NC(=O)[C@H](CCCCN)NC(=O)[C@H](CC(C)C)NC(=O)[C@H](CC(C)C)NC(=O)[C@H](CCCCN)NC(=O)[C@@H](N)CC(C)C)C(N)=O [LKLLKKLLKKLLKLL]

MIC [31]: 1.2 µM (≈ 2 µg/mL)
SMILES: CC[C@H](C)[C@H](NC(=O)[C@H](CCCCN)NC(=O)[C@H](Cc1c[nH]c2ccccc12)NC(=O)[C@H](CCCN=C(N)N)NC(=O)[C@@H](N)CCCN=C(N)N)C(=O)N[C@H](C(=O)N[C@H](C(=O)N[C@H](C(=O)N[C@@H](CCCN=C(N)N)C(=O)N[C@@H](Cc1c[nH]c2ccccc12)C(=O)N[C@@H](CCCCN)C(=O)N[C@@H](CCCCN)C(N)=O)[C@@H](C)CC)C(C)C)C(C)C [RRWKIVVIRWKK]

MIC [32]: ≥ 46 µM | MIC [33]: ≥ 46 µM
SMILES: CC(C)C[C@H](NC(=O)CNC(=O)[C@H](Cc1cnc[nH]1)NC(=O)[C@H](Cc1cnc[nH]1)NC(=O)[C@H](CC(C)C)NC(=O)[C@H](CC(C)C)NC(=O)[C@H](C)NC(=O)[C@H](CC(N)=O)NC(=O)[C@H](CC(C)C)NC(=O)[C@@H](N)Cc1c[nH]c2ccccc12)C(=O)N[C@@H](CC(N)=O)C(=O)N[C@@H](CS)C(N)=O [WLNALLHHGLNC]
